Results published in patent publication US6852759B2, “Process for the synthesis of trans-alkenoic acids, use thereof” (priority 2002, dated 2005).
Where two headings read alike, the source gives them in different places. Marks after values point to notes of the source that are not given here.

Key:
[1] = test system: CCl4, Paracetamol, Galactosamine and alcohol as hepatotoxins; test: Antihepatotoxicity/hepato-protective activity in vivo, overall comparison with silymarin; conditions: prophylactic and curative aspects in vivo
[2] = test system: CCl4 administration in mice
[3] = test system: D-Galactosamine (Gal N) induced hepatic injury in rats; test: Hepatoprotective activity, prophylactic study, D-Galactosamine; assay type: in vivo
[4] = test system: acetaminophen (APAP) in mice; test: Hepatoprotective activity, prophylactic study, acetaminophen (APAP) after diethyl-ether; assay type: in vivo
[5] = test system: alcohol induced hepatic damage in rats; test: Hepatoprotective activity against alcohol induced hepatic damage (serum and hepatic parameters); assay type: in vivo; conditions: for Hepatic Protein % change: only change and not protection
[6] = test system: D-Galactosamine (Gal N) induced hepatic injury in rats; test: Hepatoprotective activity, curative study, D-Galactosamine; assay type: in vivo
[7] = 12.5 mg/kg p.o. 1 h before CCl4, mice
[8] = 25 mg/kg p.o. 1 h before CCl4, mice
[9] = 50 mg/kg p.o. 1 h before CCl4, mice
[10] = 100 mg/kg p.o. 1 h before CCl4, mice
[11] = 12.5 mg/kg p.o. + Gal N, prophylactic
[12] = 25 mg/kg p.o. + Gal N, prophylactic
[13] = 50 mg/kg p.o. + Gal N, prophylactic
[14] = TCA alone 100 mg/kg p.o., no Gal N, prophylactic study
[15] = 12.5 mg/kg p.o. + APAP, prophylactic
[16] = 25 mg/kg p.o. + APAP, prophylactic
[17] = 50 mg/kg p.o. + APAP, prophylactic
[18] = 100 mg/kg p.o. + APAP, prophylactic
[19] = TCA alone 100 mg/kg p.o., no APAP, prophylactic study
[20] = 12.5 mg/kg p.o. + Gal N, curative
[21] = 25 mg/kg p.o. + Gal N, curative
[22] = 50 mg/kg p.o. + Gal N, curative
[23] = TCA alone 50 mg/kg p.o., no Gal N, curative study

CCCCCCCC/C=C/CCCCCCCCCCCCCC(=O)O [TCA, t-Tetracos-15-enoic acid]
antihepatotoxicity/hepato-protective activity compared with silymarin [1]: better protection and reversal of biochemical parameters better then those obtained with silymarin
Zoxazolamine Hepatoprotection [2, 7]: 40.10 ± 6.55%
Zoxazolamine Paralysis time [2, 7]: 39.00 ± 1.93*^c min
Zoxazolamine Hepatoprotection [2, 8]: 51.40 ± 11.12%
Zoxazolamine Paralysis time [2, 8]: 35.66 ± 3.28**^c min
Zoxazolamine Hepatoprotection [2, 9]: 70.61 ± 7.68%
Zoxazolamine Paralysis time [2, 9]: 30.00 ± 2.26**^c min
Zoxazolamine Hepatoprotection [2, 10]: 84.17 ± 6.55%
Zoxazolamine Paralysis time [2, 10]: 26.00 ± 1.93**^c min
Serum ALP [3, 11]: 47.07 ± 2.98 μmole of p-nitrophenol formed/min/L
Serum ALP, hepatoprotective activity percent [3, 11]: (30.88 ± 7.77) percent
Serum Bilirubin [3, 11]: 0.56 ± 0.03 mg %
Serum Bilirubin, hepatoprotective activity percent [3, 11]: (39.49 ± 4.59) percent
Serum GOT [3, 11]: 613.20 ± 65.19 Units
Serum GOT, hepatoprotective activity percent [3, 11]: (34.60 ± 7.57) percent
Serum GPT [3, 11]: 743.62 ± 66.83 Units
Serum GPT, hepatoprotective activity percent [3, 11]: (39.30 ± 6.25) percent
Serum Triglycerides [3, 11]: 26.49 ± 1.88 mg %
Serum Triglycerides, hepatoprotective activity percent [3, 11]: (37.38 ± 6.18) percent
Serum ALP [3, 12]: 40.49 ± 2.29 μmole of p-nitrophenol formed/min/L
Serum ALP, hepatoprotective activity percent [3, 12]: (51.62 ± 6.31) percent
Serum Bilirubin [3, 12]: 0.44 ± 0.05 mg %
Serum Bilirubin, hepatoprotective activity percent [3, 12]: (58.00 ± 3.86) percent
Serum GOT [3, 12]: 505.26 ± 29.63 Units
Serum GOT, hepatoprotective activity percent [3, 12]: (47.68 ± 3.99) percent
Serum GPT [3, 12]: 635.11 ± 54.67 Units
Serum GPT, hepatoprotective activity percent [3, 12]: (49.35 ± 5.16) percent
Serum Triglycerides [3, 12]: 23.58 ± 2.02 mg %
Serum Triglycerides, hepatoprotective activity percent [3, 12]: (46.97 ± 6.67) percent
Serum ALP [3, 13]: 34.94 ± 1.43 μmole of p-nitrophenol formed/min/L
Serum ALP, hepatoprotective activity percent [3, 13]: (66.91 ± 3.92) percent
Serum Bilirubin [3, 13]: 0.36 ± 0.02 mg %
Serum Bilirubin, hepatoprotective activity percent [3, 13]: (70.76 ± 2.78) percent
Serum GOT [3, 13]: 406.05 ± 25.82 Units
Serum GOT, hepatoprotective activity percent [3, 13]: (61.05 ± 3.48) percent
Serum GPT [3, 13]: 413.53 ± 23.94 Units
Serum GPT, hepatoprotective activity percent [3, 13]: (70.34 ± 2.25) percent
Serum Triglycerides [3, 13]: 21.37 ± 1.51 mg %
Serum Triglycerides, hepatoprotective activity percent [3, 13]: (54.25 ± 4.97) percent
Serum ALP [3, 14]: 19.84 ± 1.58 μmole of p-nitrophenol formed/min/L
Serum Bilirubin [3, 14]: 0.20 ± 0.02 mg %
Serum GOT [3, 14]: 122.47 ± 11.84 Units
Serum GPT [3, 14]: 95.22 ± 8.74 Units
Serum Triglycerides [3, 14]: 8.79 ± 0.55 mg %
Serum ALP [4, 15]: 50.41 ± 3.07 μmole of p-nitrophenel formed/min/L
Serum ALP, hepatoprotective activity percent [4, 15]: (21.27 ± 9.50) percent
Serum GOT [4, 15]: 1079.43 ± 98.66 Units
Serum GOT, hepatoprotective activity percent [4, 15]: (25.66 ± 7.72) percent
Serum GPT [4, 15]: 2182.19 ± 137.86 Units
Serum GPT, hepatoprotective activity percent [4, 15]: (22.86 ± 5.31) percent
Serum Triglycerides [4, 15]: 14.72 ± 0.68 mg %
Serum Triglycerides, hepatoprotective activity percent [4, 15]: (28.28 ± 8.27) percent
Serum ALP [4, 16]: 46.23 ± 1.73 μmole of p-nitrophenel formed/min/L
Serum ALP, hepatoprotective activity percent [4, 16]: (34.15 ± 5.39) percent
Serum GOT [4, 16]: 880.10 ± 60.29 Units
Serum GOT, hepatoprotective activity percent [4, 16]: (41.26 ± 4.72) percent
Serum GPT [4, 16]: 1696.53 ± 48.31 Units
Serum GPT, hepatoprotective activity percent [4, 16]: (41.57 ± 1.86) percent
Serum Triglycerides [4, 16]: 13.47 ± 0.89 mg %
Serum Triglycerides, hepatoprotective activity percent [4, 16]: (43.32 ± 10.80) percent
Serum ALP [4, 17]: 41.44 ± 1.27 μmole of p-nitrophenel formed/min/L
Serum ALP, hepatoprotective activity percent [4, 17]: (49.04 ± 3.94) percent
Serum GOT [4, 17]: 619.36 ± 88.89 Units
Serum GOT, hepatoprotective activity percent [4, 17]: (61.67 ± 6.96) percent
Serum GPT [4, 17]: 1066.99 ± 118.14 Units
Serum GPT, hepatoprotective activity percent [4, 17]: (65.82 ± 4.55) percent
Serum Triglycerides [4, 17]: 12.34 ± 0.85 mg %
Serum Triglycerides, hepatoprotective activity percent [4, 17]: (56.84 ± 10.23) percent
Serum ALP [4, 18]: 35.08 ± 2.18 μmole of p-nitrophenel formed/min/L
Serum ALP, hepatoprotective activity percent [4, 18]: (68.82 ± 6.78) percent
Serum GOT [4, 18]: 310.53 ± 45.32 Units
Serum GOT, hepatoprotective activity percent [4, 18]: (85.85 ± 4.25) percent
Serum GPT [4, 18]: 539.60 ± 51.65 Units
Serum GPT, hepatoprotective activity percent [4, 18]: (86.13 ± 1.99) percent
Serum Triglycerides [4, 18]: 10.87 ± 0.69 mg %
Serum Triglycerides, hepatoprotective activity percent [4, 18]: (74.48 ± 8.37) percent
Serum ALP [4, 19]: 27.15 ± 2.92 μmole of p-nitrophenel formed/min/L
Serum GOT [4, 19]: 106.86 ± 30.15 Units
Serum GPT [4, 19]: 146.00 ± 32.15 Units
Serum Triglycerides [4, 19]: 7.77 ± 0.56 mg %
Hepatic G-6-Pase ([5]; 25 mg/kg + Alcohol): 2.19 ± 0.465 Units/g
Hepatic G-6-Pase % Protection ([5]; 25 mg/kg + Alcohol): 73%
Hepatic Protein ([5]; 25 mg/kg + Alcohol): 172 ± 20.430 Mg/g
Hepatic SDII ([5]; 25 mg/kg + Alcohol): 7.79 ± 0.272 Units/G
Hepatic SDII % Protection ([5]; 25 mg/kg + Alcohol): 14%
Hepatic TG ([5]; 25 mg/kg + Alcohol): 14.75 ± 0.60 Mg/g
Hepatic TG % change ([5]; 25 mg/kg + Alcohol): −3.10%
Hepatic Protein % change ([5]; 25 mg/kg + Alcohol): −3.9%
ALF ([5]; 25 mg/kg + Alcohol, serum): 16.00 ± 2.04 U/I
ALF % Protection ([5]; 25 mg/kg + Alcohol, serum): 80.00%
GGT ([5]; 25 mg/kg + Alcohol, serum): 1.90 ± 0.447 IU/I
GGT % Protection ([5]; 25 mg/kg + Alcohol, serum): 63.00%
SGOT ([5]; 25 mg/kg + Alcohol, serum): 310.00 ± 30.36**^β U/I
SGOT % Protection ([5]; 25 mg/kg + Alcohol, serum): 77.29%
SGPT ([5]; 25 mg/kg + Alcohol, serum): 234.00 ± 8.80**^β U/I
SGPT % Protection ([5]; 25 mg/kg + Alcohol, serum): 57.33%
Serum Protein ([5]; 25 mg/kg + Alcohol, serum): 16.90 ± 3.38 G/dl
Serum Protein % Protection ([5]; 25 mg/kg + Alcohol, serum): 44.40%
Hepatic G-6-Pase ([5]; 50 mg/kg + Alcohol): 2.20 ± 2.223 Units/g
Hepatic G-6-Pase % Protection ([5]; 50 mg/kg + Alcohol): 75%
Hepatic Protein ([5]; 50 mg/kg + Alcohol): 174 ± 2.11 Mg/g
Hepatic SDII ([5]; 50 mg/kg + Alcohol): 8.24 ± 0.390 Units/G
Hepatic SDII % Protection ([5]; 50 mg/kg + Alcohol): 43%
Hepatic TG ([5]; 50 mg/kg + Alcohol): 15.44 ± 1.073 Mg/g
Hepatic TG % change ([5]; 50 mg/kg + Alcohol): 1.40%
Hepatic Protein % change ([5]; 50 mg/kg + Alcohol): −2.80%
ALF ([5]; 50 mg/kg + Alcohol, serum): 14.60 ± 2.82***^β U/I
ALF % Protection ([5]; 50 mg/kg + Alcohol, serum): 95.00%
GGT ([5]; 50 mg/kg + Alcohol, serum): 1.54 ± 0.128 IU/I
GGT % Protection ([5]; 50 mg/kg + Alcohol, serum): 90.00%
SGOT ([5]; 50 mg/kg + Alcohol, serum): 295.00 ± 34.39**^β U/I
SGOT % Protection ([5]; 50 mg/kg + Alcohol, serum): 101.09%
SGPT % Protection ([5]; 50 mg/kg + Alcohol, serum): 73.86%
Serum Protein ([5]; 50 mg/kg + Alcohol, serum): 12.60 ± 3.09 G/dl
Serum Protein % Protection ([5]; 50 mg/kg + Alcohol, serum): 7.70%
Serum ALP [6, 20]: 46.03 ± 2.35^NS μmole of p-niotrophenol formed/min/L
Serum ALP, hepatoprotective activity percent [6, 20]: (43.65 ± 6.96) percent
Serum Bilirubin [6, 20]: 0.56 ± 0.03 mg %
Serum Bilirubin, hepatoprotective activity percent [6, 20]: (46.75 ± 3.74) percent
Serum GOT [6, 20]: 494.53 ± 41.13 Units
Serum GOT, hepatoprotective activity percent [6, 20]: (34.12 ± 6.65) percent
Serum GPT [6, 20]: 578.14 ± 57.37 Units
Serum GPT, hepatoprotective activity percent [6, 20]: (40.40 ± 7.08) percent
Serum Triglycerides [6, 20]: 11.85 ± 0.75^NS mg %
Serum Triglycerides, hepatoprotective activity percent [6, 20]: (32.78 ± 8.37) percent
Serum ALP [6, 21]: 38.87 ± 2.62 μmole of p-niotrophenol formed/min/L
Serum ALP, hepatoprotective activity percent [6, 21]: (64.83 ± 7.74) percent
Serum Bilirubin [6, 21]: 0.46 ± 0.03 mg %
Serum Bilirubin, hepatoprotective activity percent [6, 21]: (59.74 ± 4.04) percent
Serum GOT [6, 21]: 449.93 ± 31.58 Units
Serum GOT, hepatoprotective activity percent [6, 21]: (41.37 ± 5.10) percent
Serum GPT [6, 21]: 518.66 ± 42.64 Units
Serum GPT, hepatoprotective activity percent [6, 21]: (47.74 ± 5.26) percent
Serum Triglycerides [6, 21]: 10.48 ± 0.91^NS mg %
Serum Triglycerides, hepatoprotective activity percent [6, 21]: (46.11 ± 9.77) percent
Serum ALP [6, 22]: 36.94 ± 1.87 μmole of p-niotrophenol formed/min/L
Serum ALP, hepatoprotective activity percent [6, 22]: (71.88 ± 5.54) percent
Serum Bilirubin [6, 22]: 0.35 ± 0.02 mg %
Serum Bilirubin, hepatoprotective activity percent [6, 22]: (73.16 ± 2.95) percent
Serum GOT [6, 22]: 391.66 ± 29.53 Units
Serum GOT, hepatoprotective activity percent [6, 22]: (50.76 ± 4.78) percent
Serum GPT [6, 22]: 412.17 ± 31.17 Units
Serum GPT, hepatoprotective activity percent [6, 22]: (60.88 ± 3.85) percent
Serum Triglycerides [6, 22]: 9.23 ± 0.59 mg %
Serum Triglycerides, hepatoprotective activity percent [6, 22]: (61.84 ± 6.59) percent
Serum ALP [6, 23]: 24.45 ± 2.76 μmole of p-niotrophenol formed/min/L
Serum Bilirubin [6, 23]: 0.19 ± 0.02 mg %
Serum GOT [6, 23]: 91.07 ± 10.50 Units
Serum GPT [6, 23]: 105.02 ± 18.74 Units
Serum Triglycerides [6, 23]: 6.44 ± 0.38 mg %
